Results on seven molecules are retold here after patent US5998366A, “Method for ameliorating glutamic acid decarboxylase associated autoimmune disorders” (The Regents of the University of California, priority 1997, dated 1999).

Assay [1] has as its system IDDM autoantibodies in sera of human patients. As to the kind of experiment: Immunoprecipitation of 35S-labeled GAD65 segments by IDDM patient sera. Format: binding. The settings on record: 22 IDDM patient sera, 30 μl serum. An excerpt: Portions of human GAD65 cDNA were amplified by the polymerase chain reaction (PCR; Saiki, et al., Science, 239:487, 1988) to produce DNA segments encoding three polypeptide segments: amino acid residues 1-224 (segment A); 224-398 (segment B); and 398-585 (segment C). Each construct also contained a T7 promoter, a consensus sequence for the initiation of translation and an initiating methionine codon (Korak, M., J. Cell Biol., 108:229, 1989). Each PCR product was then trascribed in vitro with T7 RNA polymerase and translated in vitro in a rabbit reticulocyte cell-free system in the presence of ^35 S-methionine, using conditions recommended by the supplier (Amersham Corp., Arlington Heights, Ill.). Each test serum (30 μl) was incubated with the resulting ^35 S labeled-polypeptides. The bound peptides were isolated with PAS and analyzed by SDS-PAGE in 12% polyaacrylamide and autoradiography.

Assay [2] deals with spleen cells of treated female NOD mice. As to the kind of experiment: Proliferative splenic T-cell responses to antigens after tolerance induction. Format: in vivo. The note with it: Table 8A: i.v. at 3 weeks, tested at 12 weeks.
In assay [3] the test system is female NOD mice. As to the kind of experiment: Insulitis score after tolerance induction. The format is in vivo. The settings on record: Table 8A: i.v. injection at 3 weeks of age in PBS, examined at 12 weeks; scale 0-4; mean ± SE. As to the method: 1. In these experiments female NOD mice were intravenously injected at 3 weeks of age with 50 μg GAD, μ-galactosidase, mycobacterial hsp65 (m-hsp) or 0.1 μg of the immunodominant hsp peptide (hsp-p), in PBS. At 12 weeks of age, mice were examined for insulitis and autoantigen reactive T-cells. At this age both indications are established in untreated NOD mice. Pancreatic tissue sections were stained by immunoperoxidase techniques for insulin and were counterstained with hematoxylin. Insulitis was scored in a blinded manner by examining 54 to 87 islets on 5 interrupted tissue sections from each pancreas. Proliferative splenic T-cell responses induced by various antigens were performed as described above in Example 4. Data in Table 8 are expressed as the average [^3 H]-thymidine label (cpm) incorporated in triplicate cultures.
2. In a second set of experiments neonatal female NOD mice were injected intraperitoneally IFA with peptide 11, a mixture of peptides 34 and 35 plus IFA, or with IFA alone and at 12 weeks of age the mice were examined for insulitis and autoantigen reactive T-cells as in Example 6.1. Proliferative splenic T-cell responses induced by the various antigens were performed as in Example 4, and data in Table 8B are expressed as the average [^3 H]-thymidine label (cpm) incorporated in triplicate cultures.
3. In a third set of experiments female NOD mice were intravenously injected at three weeks of age with peptide 11 (control), a mixture of peptides 34 and 35 plus IFA, or with HEL peptides and at 12 weeks of age the mice were examined for insulitis and autoantigen reactive T-cells as in Example 6.1. Proliferative splenic T-cell responses induced by the various antigens were performed as in Example 4, and data in Table 8C are expressed as the average [^3 H]-thymidine label (cpm) incorporated in triplicate cultures.

For assay [4], the system named is female NOD mice. As to the kind of experiment: GAD immunization of 8 week old NOD mice, onset of IDDM. The format is in vivo. The note with it: again every 6 weeks. An excerpt: An IPTG inducible T7 expression vector was used to express both human GAD65 and E. coli b galactosidase (β-gal). In IPTG induced recombinant E. coli, GAD and β-gal constitute about 10-20% of the total bacterial protein. However, almost all of the GAD was in inclusion bodies, which could be isolated and extensively washed to obtain material that is about 80% GAD. We then did affinity purifications of GAD and β-gal on the basis of a hexa-histidine "tag" which was attached to GAD during the subcloning process. These extra histidine residues allow the rapid affinity purification (Novagen) of GAD by metal affinity chromatography (Hochuli, et al., Bio Technology, 6:1321-1325, 1988). The inclusion body material is solubilized in 6M guanidine hydrochloride (GHCL), 10 mm β-mercaptoethanol and 1% triton X-100. After binding to the column, the column was extensively washed with GHCL and 8M urea in phosphate buffers. Only the central peak GAD fraction was utilized for subsequent studies. Human GAD65 shares 96% amino acid sequence identity with murine GAD65, with most of the amino acid differences being conservative substitutions.
Breeder mice were purchased from Taconic Farms and housed under specific pathogen-free conditions. Only female NOD mice were used in this study. The average age of IDDM onset in unrelated females in the colony was 22 weeks. Insulitis is generally observed beginning at 4 weeks of age. T cell responses to GAD, HSP, CPH were found by 6 weeks in age. The incidence of IDDM in female mice is 70-90% by one year of age.
At 8 weeks of age, 25 ug GAD or control β-gal. was injected intraperftoneally (ip) in 100 ul of incomplete Freunds adjuvant (IFA). Because there may be a requirement for continual antigen presentation (Ramsdell, et al., Science, 257:1130-1133, 1992) mice were treated again every 6 weeks. Urine glucose levels were monitored twice weekly. After observing above normal glucose in urea, blood glucose levels were monitored twice weekly. Two consecutive blood glucose level readings of […] was considered as IDDM onset, after which the mice were sacrificed and spleen cells were tested as described above in Example 6 for evidence of spleen cell proliferation.

Assay [5] concerns the target T1, 64 kD pancreatic polypeptide (Homo sapiens, UniProt Q05329).
T1 construct: antibodies which recognize specific polypeptides produced in human pancreatic islet cells; endogenous in cells; host or cells: human pancreatic islet cells from cadaveric pancreas, metabolically labelled with 35S-methionine
As to the kind of experiment: Prior absorption of patient sera, then immunoprecipitation of the 64 kD islet cell polypeptide. The format is binding. An excerpt: 4. Human Islet Cells. Human pancreatic islets were isolated from cadaveric pancreases and maintained in vitro as previously described (Ricordi, et al., Diabetes, 37:413-420, 1988). The islet cells were metabolically labeled with ^35 S methionine (Amersham, Arlington Heights, Ill.) in vitro (95% air/5%CO2).
5. Islet Cell Extractions and Immunoprecipitations. Islet cells were extracted as previously described by Atkinson, et al. (Lancet, 335:1357-1360, 1990) with the following modifications. […] Following another incubation with protein A Sepharose CL-4B (1 h, 4° C.), the complexes were then washed 5 times with 50 mM Tris HCL (pH 7.4) with 0.1% SDS, 1.0% Triton X-114, and 2 mM EDTA, and then washed again one time in double distilled water. The protein A Sepharose CL-4B was then boiled in Laemmli sample buffer (Laemmli, Nature, 227:680-685, 1970), and the samples were subjected to SDS-PAGE and fluororadiography (Kodak, X-omat AR5) using Enhance (New England Nuclear). Alternatively, the autoradiographs were analyzed by a BETAGEN (Boston, Mass.) analyzer. Both 64 KA positive and negative sera were used in each assay, to serve as interassay controls. All fluororadiographs were analyzed and rated as positive or negative after comparison with the known interassay controls.

A further assay relates to spleen cells of NOD mice. As to the kind of experiment: Proliferative recall response of spleen cells to β-cell antigens, by age. The format is cell-based. The note with it: female NOD mice, 10 μg/ml antigen or 7 μM peptide, 72 h culture (FIG. 8). As to the method: NOD (Taconic farms) and BALB/c mice (Jackson Laboratories) were kept under specific pathogen free conditions. The mice were sacrificed at the ages indicated and the spleen cells were tested directly ex vivo for their proliferative recall response to antigen. Single cell suspensions of spleen cells were plated at 1×10^6 cells per well in 96 well microtiter plates in 200 μl serum free HL-1 medium (Ventrex) that was supplemented with 2 mM glutamine with or without 10 μg/ml antigen (or 7 μM peptide) in triplicate cultures. During the last 16 h of the 72 h culture period, 1 μCi[^3 H]-thymidine was added per well. Incorporation of label was measured by liquid scintillation counting.
Both human GAD65 (Bu, et al., Proc. Natl. Acad. Sci., 89:2115-2119, 1992) and E. coli β-gal (control) were purified from recombinant bacteria on the basis of a hexahistidine tag which allows their rapid affinity purification by metal affinity chromatography (Hochuli, et al., Bio/Technology, 6:1321-1325, 1988). Bovine CPH was the generous gift of L. Fricker (Albert Einstein Col. Med.) and human insulin was purchased from Eli Lilly.

T1 sequence (Q05329 whole entry): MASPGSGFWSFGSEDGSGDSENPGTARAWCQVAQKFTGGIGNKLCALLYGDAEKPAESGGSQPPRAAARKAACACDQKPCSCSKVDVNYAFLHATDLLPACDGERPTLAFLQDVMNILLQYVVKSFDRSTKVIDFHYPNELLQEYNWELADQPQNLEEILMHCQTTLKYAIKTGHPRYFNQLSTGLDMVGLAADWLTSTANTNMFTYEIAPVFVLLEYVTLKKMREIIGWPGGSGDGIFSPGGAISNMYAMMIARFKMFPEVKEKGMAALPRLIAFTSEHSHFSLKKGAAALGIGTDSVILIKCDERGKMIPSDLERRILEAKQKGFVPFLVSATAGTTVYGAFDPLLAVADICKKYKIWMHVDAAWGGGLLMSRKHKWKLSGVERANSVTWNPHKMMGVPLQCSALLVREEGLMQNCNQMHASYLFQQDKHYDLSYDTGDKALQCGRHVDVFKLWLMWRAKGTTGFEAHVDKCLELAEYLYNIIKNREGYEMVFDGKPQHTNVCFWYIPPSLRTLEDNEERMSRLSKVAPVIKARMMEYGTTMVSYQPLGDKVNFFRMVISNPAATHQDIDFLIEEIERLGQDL

For the molecule “segment B: human GAD65 amino acid residues 224-398, translated in vitro, 35S labeled”, the “patients with antibodies reactive with the segment” value (shortened to “patients with antibodies reactive”) in assay [1] is 41%.

Regarding “β-Gal.: E. coli β-galactosidase (control antigen) purified from recombinant bacteria by hexahistidine tag [reference compound]”, the “Spleen Cell Proliferation (SI ± SEM) CPH” value in assay [2] (recall antigen CPH) is 11.5 ± 0.9 SI. In assay [2] (recall antigen GAD), the “Spleen Cell Proliferation (SI ± SEM) GAD” value is listed as 15.4 ± 1.8 SI. In assay [2] (recall antigen GAD peptide #17), the “Spleen Cell Proliferation (SI ± SEM) GAD Peptides #17” value came out at 5.1 ± 0.6 SI. Besides, in assay [2] (recall antigen GAD peptide #34), the “Spleen Cell Proliferation (SI ± SEM) GAD Peptides #34” value was determined as 5.1 ± 0.6 SI. In addition, the “Spleen Cell Proliferation (SI ± SEM) GAD Peptides #35” value in assay [2] (recall antigen GAD peptide #35) worked out at 4.0 ± 0.2 SI. Moreover, the “Spleen Cell Proliferation (SI ± SEM) hsp Peptide” value in assay [2] (recall antigen hsp peptide) is given as 6.6 ± 0.5 SI. Besides, the “Spleen Cell Proliferation (SI ± SEM) β-Gal” value in assay [2] (recall antigen β-Gal) was 1.1 ± 0.1 SI. The “Insulitis Score” value with female NOD mice [3] came to 2.6 ± 0.6. For the same molecule, the “mice that developed IDDM by 27 weeks in age” value in the assay on female NOD mice [4] (25 ug ip in IFA at 8 weeks of age) is given as 6/10. Also, the “treated mice remaining disease free at 52 weeks of age” value in the assay with female NOD mice [4] (25 ug ip in IFA at 8 weeks, 10 mice per group) was determined as 2.

Consider “bacterially produced GAD65: GAD65 expressed in bacteria, used to absorb patient sera”, for which, in assay [5], the “ability of the absorbed sera to recognize the 64 kD pancreatic polypeptide” value is reported as “abolished”.

For “insulin: human insulin purchased from Eli Lilly [reference compound]”, the “age at which the proliferative T-cell response to the antigen appeared” value in the assay with spleen cells of NOD mice was determined as 12 weeks.

“CPH: bovine carboxypeptidase H, gift of L. Fricker [reference compound]”: the “age at which the proliferative T-cell response to the antigen appeared” value in the assay on spleen cells of NOD mice is recorded as ≤ 8 weeks.

B1: segment A: human GAD65 amino acid residues 1-224, translated in vitro, 35S labeled (protein, UniProt Q05329 1-224, looked up, fragment)
chain: MASPGSGFWSFGSEDGSGDSENPGTARAWCQVAQKFTGGIGNKLCALLYGDAEKPAESGGSQPPRAAARKAACACDQKPCSCSKVDVNYAFLHATDLLPACDGERPTLAFLQDVMNILLQYVVKSFDRSTKVIDFHYPNELLQEYNWELADQPQNLEEILMHCQTTLKYAIKTGHPRYFNQLSTGLDMVGLAADWLTSTANTNMFTYEIAPVFVLLEYVTLKKM
modifications: 35S label
notes: human GAD65 amino acid residues 1-224, translated in vitro, 35S labeled
Take B1: in assay [1], the “patients with antibodies reactive” value was “none”.

B2: segment C: human GAD65 amino acid residues 398-585, translated in vitro, 35S labeled (protein, UniProt Q05329 398-585, looked up, fragment)
chain: MGVPLQCSALLVREEGLMQNCNQMHASYLFQQDKHYDLSYDTGDKALQCGRHVDVFKLWLMWRAKGTTGFEAHVDKCLELAEYLYNIIKNREGYEMVFDGKPQHTNVCFWYIPPSLRTLEDNEERMSRLSKVAPVIKARMMEYGTTMVSYQPLGDKVNFFRMVISNPAATHQDIDFLIEEIERLGQDL
modifications: 35S label
notes: human GAD65 amino acid residues 398-585, translated in vitro, 35S labeled
B2: the “patients with antibodies reactive” value in assay [1] came to 27%.
